Data published in paper PMC12128972, “TYRA-300, an FGFR3-selective inhibitor, promotes bone growth in two FGFR3-driven models of chondrodysplasia” (JCI Insight, 2025).
Where “and” joins values, the source holds several entries; their conditions need not be identical. Equal values may be shown once.

Legend:
[1] = tested on: Fgfr3^Y367C/+ mouse model, which mimics the phenotype of ACH; experiment: Fgfr3Y367C/+ mice: growth, body weight and long bone length (calipers, x-ray); type: in vivo; parameters: nasoanal length, individual mice / tail length, individual mice: unit not given here; details: for nasoanal length, individual mice / tail length, individual mice / body weight, individual mice: 1.2 mg/kg/d s.c. from day 1
Description: In this study, Fgfr3^Y367C/+ mice were administered TYRA-300 daily by subcutaneous injection at a dose of 1.2 mg/kg for 15 days beginning at 1 day of age to evaluate the effects on growth, bone length, and key skeletal parameters, compared with those of vehicle-treated Fgfr3^Y367C/+ mice. Results were also compared with those from vehicle-treated Fgfr3^+/+ (wild-type) mice. […] In Fgfr3^Y367C/+ mice, the […], resulting in disproportionate long bones.
Tg-CMV^Cre/+/Fgfr3^Y367C/+ mice were tattooed and assigned to treatment groups within each litter at 1 day of age (wild-type mice, Fgfr3^Y367/+ mice treated with vehicle, or Fgfr3^Y367/+ mice treated with 1.2 mg/kg TYRA-300). TYRA-300 was dissolved in aqueous HCl (3.5 mM) containing 5% dimethyl sulfoxide (DMSO) and administered subcutaneously to Fgfr3^Y367/+ mice (n = 8) for 15 days. The vehicle was administered to wild-type (n = 10) or Fgfr3^Y367/+ mice (n = 10) for 15 days. Subcutaneous administration was used for this study rather than oral gavage due to the reduced size of the mice. Clinical observations, nasoanal length and tail length measurements were performed every 3 days, and body weights were collected daily.
(§1) Whole body x-ray images were taken of all animals by Faxitron specimen radiography MX-20 (Faxitron X-Ray LLC) following terminal sacrifice. The length of the L4–L6 lumbar vertebra segment was also measured for each animal using calipers, and the height of the L5 vertebral body was measured from Alcian blue/Sirius red images. Long bones and the skull were then excised, and their dimensions were measured using calipers (VWRi819-0013, VWR International). The transverse and sagittal diameters of the foramen magnum were also measured using calipers for the Fgfr3^Y367/+ model, and measured using the μCT images for the Fgfr3^N534K/+ model.

[2] = tested on: skull and foramen magnum of Fgfr3^Y367C/+ mice; experiment: Fgfr3Y367C/+ mice: skull and foramen magnum (calipers, microCT), grade of synchondroses; type: in vivo, mouse; parameters: source data of Figure 3I (sheet "3I"): grade of synchondroses: scale not given here
Description: Another hallmark of ACH that is observed in Fgfr3^Y367C/+ mice is change in the size and shape of the skull and foramen magnum ([28]). The size of the foramen magnum is of particular clinical importance, as its reduced size can cause compression of the brain stem and spinal cord, resulting in significant morbidity and mortality in infants with ACH ([37]–[40]). To study the effects of TYRA-300 on the skull and foramen magnum in Fgfr3^Y367C/+ mice, macroscopic analyses were performed and μCT images were taken of the mice at the end of study. Changes in the shape of the skull are visible on μCT images in TYRA-300–treated Fgfr3^Y367C/+ mice compared with vehicle-treated Fgfr3^Y367C/+ mice (Figure 3A). […] The skull was further analyzed using the μCT images, which enabled measurement of the anteroposterior length and nasio-occipital length of the skull.
The μCT images also indicate that treatment with TYRA-300 modified the synchondroses at the base of the skull (Figure 3, I and J). […] Overall, the improvement in the size and shape of the foramen magnum with TYRA-300 has important clinical implications for foramen magnum stenosis.
as §1
(§2) The heads of all mice were isolated, and skin was stripped before being placed in 70% ethanol at 4°C. μCT images of the skulls were measured on the Skyscan-1272 (Bruker) with the following parameters: 10 μm resolution, 680 ms exposure, 70 kV, 142 μA, and 0.350° rotation step. The μCT data were analyzed using DataViewer and CTAn software (version 1.20.8) to perform postprocessing techniques in 3D. The nasio-occipital length and anteroposterior length of the skull were measured using 2D μCT images.

[3] = tested on: foramen magnum of Fgfr3^N534K/+ mice; experiment: Fgfr3N534K/+ mice: microCT of foramen magnum, grade of synchondroses; type: in vivo, mouse; parameters: key to grade of synchondroses after treatment: I: border of synchondroses were completely separated; II: clear separation of synchondroses with some areas suspicious for bone bridging; III: synchondroses showing bony bridge between 2 borders; IV: completely fused synchondroses with remnants of margin (cartilage); V: completely fused synchondroses; source data of Figure 5C (sheet "5C"): grade of synchondroses: scale not given here
Description: Finally, to confirm the effects of TYRA-300 on the axial skeleton in Fgfr3^N534K/+ mice, μCT imaging of the foramen magnum was performed at the end of treatment.
as §1, §2

FGFR3 N540K = tested on: FGFR3 N540K; parameters: method as in PMID 39258897; details: cited from earlier work
[4] = 1.2 mg/kg s.c. daily for 15 days
[5] = 1.2 mg/kg s.c. daily for 15 days from 1 day of age
[6] = Fgfr3Y367C/+ mice + TYRA-300, individual animal values, in mm (unit assumed)
[7] = 1.2 mg/kg s.c. daily for 15 days, macroscopic
[8] = 1.2 mg/kg s.c. daily for 15 days, microCT
[9] = 1.8 mg/kg daily for 21 days, microCT

Compound: C[C@@H](Oc1ccc2[nH]nc(-c3ccc(N4CC5(C4)CN(S(C)(=O)=O)C5)nc3)c2c1)c1c(Cl)cncc1Cl [TYRA-300]
- increase in length of the femur vs vehicle [1, 4]: 22.55%
- increase in length of the humerus vs vehicle [1, 4]: 15.52%
- increase in length of the tibia vs vehicle [1, 4]: 33.01%
- increase in length of the ulna vs vehicle [1, 4]: 23.51%
- increase in nasoanal length vs vehicle-treated mutant mice [1, 5]: 17.88%
- increase in tail length vs vehicle-treated mutant mice [1, 5]: 25.10%
- increase in body weight vs vehicle-treated mice ([1]; 1.2 mg/kg s.c. daily, end of treatment): 52.9%
- nasoanal length, individual mice ([1]; day 1): 29 (4×) and 30 and 28 and 31 (2×)
- tail length, individual mice ([1]; day 1): 12 and 13 (6×) and 14
- body weight, individual mice ([1]; day 1, in g (unit assumed)): 1.56 and 1.58 and 1.46 and 1.33 and 1.47 and 1.4 and 1.37 and 1.6
- body weight, individual mice ([1]; day 2, in g (unit assumed)): 1.72 and 1.94 and 1.84 and 1.42 and 1.55 and 1.46 and 1.53 and 2.01
- body weight, individual mice ([1]; day 3, in g (unit assumed)): 1.9 and 2.33 and 2.12 and 1.64 and 1.76 and 1.63 and 1.84 and 2.4
- nasoanal length, individual mice ([1]; day 4): 32 and 34 (2×) and 35 and 31 and 33 (3×)
- tail length, individual mice ([1]; day 4): 17 (3×) and 18 and 19 and 16 (2×) and 15
- body weight, individual mice ([1]; day 4, in g (unit assumed)): 2.07 and 2.76 and 2.5 and 1.89 and 2.29 and 1.86 and 2.18 and 2.91
- body weight, individual mice ([1]; day 5): 2.2 (2×) and 3.12 and 2.97 and 2.23 and 2.52 and 2.53 and 3.27
- body weight, individual mice ([1]; day 6, in g (unit assumed)): 2.34 and 3.32 and 3.31 and 2.62 and 2.85 and 2.61 and 2.97 and 3.58
- nasoanal length, individual mice ([1]; day 7): 35 and 40 and 39 and 34 and 36 (4×)
- tail length, individual mice ([1]; day 7): 25 and 23 (3×) and 21 (2×) and 24 and 22
- body weight, individual mice ([1]; day 7, in g (unit assumed)): 2.5 and 3.76 and 3.67 and 3.01 and 3.07 and 3 and 3.31 and 4
- body weight, individual mice ([1]; day 8, in g (unit assumed)): 2.88 and 4.38 and 4.13 and 3.59 and 3.58 and 3.33 and 3.74 and 4.2
- body weight, individual mice ([1]; day 9): 3.25 and 4.59 (2×) and 4.2 and 3.92 and 3.86 and 3.97 and 4.66
- nasoanal length, individual mice ([1]; day 10): 40 (3×) and 42 (3×) and 38 and 41
- tail length, individual mice ([1]; day 10): 25 and 28 and 27 (3×) and 26 (2×) and 29
- body weight, individual mice ([1]; day 10, in g (unit assumed)): 3.5 and 5.05 and 4.73 and 4.46 and 4.52 and 4.17 and 4.41 and 4.98
- body weight, individual mice ([1]; day 11, in g (unit assumed)): 3.7 and 5.46 and 5.06 and 4.65 and 4.64 and 4.44 and 4.99 and 5.57
- body weight, individual mice ([1]; day 12, in g (unit assumed)): 4.17 and 6.04 and 5.26 and 5.13 and 4.96 and 4.59 and 5.3 and 5.5
- nasoanal length, individual mice ([1]; day 13): 41 and 46 (2×) and 44 (2×) and 43 and 42 and 45
- tail length, individual mice ([1]; day 13): 31 (4×) and 35 (3×) and 32
- body weight, individual mice ([1]; day 13, in g (unit assumed)): 4.57 and 6.33 and 5.41 and 5.39
- nasoanal length, individual mice ([1]; day 16): 42 and 47 (2×) and 48 and 46 (2×) and 44 and 50
- tail length, individual mice ([1]; day 16): 33 (2×) and 36 (4×) and 34 and 35
- average normalization of long bone length toward wild-type ([1]; ACH model, 1.2 mg/kg): 26%
- source data of Figure 2E (sheet "2E"): long bone length, bone not given [1, 6]: 7.38 and 6.94 and 7.67 and 7.62 and 7.75 and 7.48 and 7.35 and 7.46
- source data of Figure 2F (sheet "2F"): long bone length, bone not given [1, 6]: 6.52 and 6.4 and 6.85 and 6.87 and 5.9 and 6.57 and 6.71
- source data of Figure 2G (sheet "2G"): long bone length, bone not given [1, 6]: 6.5 and 6.23 and 7.03 and 6.67 and 6.08 and 7.07 and 6.74 and 6.82
- source data of Figure 2H (sheet "2H"): long bone length, bone not given [1, 6]: 5.78 and 5.71 and 6.17 and 5.84 and 6.2 and 5.91 and 5.85 and 6.02
- bone growth compared with low-dose infigratinib (0.5 mg/kg) ([1]; TYRA-300 1.2 mg/kg, 15 days starting at 1 day of age, comparator data ref 28, 29): more bone growth than low-dose infigratinib
- increase in sagittal diameter of the foramen magnum vs vehicle [2, 4]: 9.28%
- increase in transverse diameter of the foramen magnum vs vehicle [2, 4]: 13.05%
- grade of synchondroses (intraoccipital synchondrosis anterior) ([2]; 1.2 mg/kg s.c. daily for 15 days, all treated mice): II or III
- increase in skull length vs vehicle [2, 7]: 10.08%
- increase in skull width vs vehicle [2, 7]: 3.74%
- increase in anteroposterior length of the skull vs vehicle [2, 8]: 8.92%
- increase in area of the foramen magnum vs vehicle [2, 8]: 25.17%
- increase in nasio-occipital length of the skull vs vehicle [2, 8]: 7.87%
- source data of Figure 3I (sheet "3I"): grade of synchondroses ([2]; Fgfr3Y367C/+ mice + TYRA-300, individual animal values): 3 and 2.5
- change in transverse diameter of the foramen magnum ([3]; 1.8 mg/kg daily for 21 days, data not shown): not a statistically significant change
- increase in area of the foramen magnum vs vehicle [3, 9]: 7.51%
- increase in sagittal diameter of the foramen magnum vs vehicle [3, 9]: 6.35%
- grade of synchondroses after treatment ([3]; 1.8 mg/kg daily for 21 days, most mice, vehicle grade V): IV
- source data of Figure 5C (sheet "5C"): grade of synchondroses ([3]; Fgfr3N534K/+ mice + TYRA-300, individual animal values): 5 and 4
- inhibition of FGFR3 N540K relative to wild-type and G380R mutant proteins (FGFR3 N540K): lower inhibition
